Data taken from US6858650B1, “Stable salts of novel derivatives of 3,3-diphenylpropylamines” (Schwarz Pharma AG, priority 1999, dated 2005).

Key:
[1] = Stability of the solid salt / on storage; assay type: physicochemical
[2] = Hygroscopicity of the solid salt; assay type: physicochemical

Row | Structure (SMILES) | stability ([1]; crystalline hydrogen fumarate salt, at RT) | hygroscopicity ([2]; crystalline hydrogen fumarate salt) | stability ([1]; hydrate-containing product from humid solvent with at least one mole equivalent of water) | hygroscopicity ([2]; anhydrous product crystallised from isobutyrate chloride solution)
1 | CC(C)C(=O)Oc1ccc(CO)cc1C(CCN(C(C)C)C(C)C)c1ccccc1.O=C(O)/C=C/C(=O)O (stereo not drawn) [2a, R-(+)-2-(3-diisopropylamino-1-phenylpropyl)-4-hydroxymethylphenyl-isobutyrate ester hydrogen fumarate] | stable at RT | non-hygroscopic |  | 
2 | CC(C)C(=O)Oc1ccc(CO)cc1C(CCN(C(C)C)C(C)C)c1ccccc1.Cl (stereo not drawn) [2b, R-(+)-2-(3-diisopropylamino-1-phenylpropyl)-4-hydroxymethylphenyl-isobutyrate ester hydrochloride hydrate] |  |  | stable | very hygroscopic
